Source: the Kinase Knowledgebase extract (Sharma et al. 2016)

Each compound was assayed against CDK2 (human) (UniProt P24941) (assay: Cell-Based Assay). Conditions: hdf-3.
With `NS(=O)(=O)c1ccc(NN=C2C(=O)Nc3ccc(-c4cnco4)cc32)cc1` the IC50 was 350 nM.

Same assay, conditions: mda-mb-468
For `CN(C)S(=O)(=O)c1ccc(N/C=C2\C(=O)Nc3ccc(-c4cnco4)cc32)cc1`, the IC50 was over 5000 nM. `NS(=O)(=O)c1ccc(NN=C2C(=O)Nc3ccc(-c4cnco4)cc32)cc1` gave an IC50 of 350 nM. Work on `CNS(=O)(=O)Cc1ccc(NN=C2C(=O)Nc3cc(C)c(O)c(C)c32)cc1` yielded an IC50 of 300 nM.

Same assay, conditions: rko
Compound `NS(=O)(=O)c1ccc(NN=C2C(=O)Nc3ccc(-c4cnco4)cc32)cc1` has an IC50 of 350 nM.

The compounds below were run against CDK2 (human) (UniProt P24941) (assay: Cell-Based Assay). Conditions: rko.
In the case of `NS(=O)(=O)c1ccc(NN=C2C(=O)Nc3ccc(-c4cnco4)cc32)cc1`, the IC50 is reported as 350 nM.

These compounds were tested against CDK2 (human) (UniProt P24941) (assay: Enzyme Assay). Conditions: not given.
`NS(=O)(=O)c1ccc(N/C=C2\C(=O)Nc3ncc(Br)cc32)cc1` was tested, and the IC50 was 55 nM. `NS(=O)(=O)c1ccc(N/C=C2\C(=O)Nc3ncccc32)cc1` showed an IC50 of 550 nM. `NS(=O)(=O)c1ccc(N/C=C2\C(=O)Nc3ncc(-c4ccco4)cc32)cc1` showed an IC50 of 55 nM. `NS(=O)(=O)c1ccc(N/C=C2\C(=O)Nc3ncc(-c4ccccc4)cc32)cc1` gave an IC50 of 5500 nM. With `O=C1Nc2ccc3ccncc3c2/C1=C/Nc1ccc(N2CCOCC2)cc1` the IC50 was over 100 nM. Work on `NS(=O)(=O)c1ccc(N/C=C2/C(=O)Nc3ccncc32)cc1.NS(=O)(=O)c1ccc(N/C=C2\C(=O)Nc3ccncc32)cc1` yielded an IC50 of 55 nM. `Cc1cc(=O)[nH]n1-c1ccc(N/C=C2\C(=O)Nc3ccc4ncsc4c32)cc1` was tested, and the IC50 was 30 nM. In the case of `O=C1Nc2ncc(Br)cc2/C1=C/Nc1ccc2cn[nH]c2c1`, the IC50 is reported as 55 nM. `O=C1Nc2ccc3ccncc3c2/C1=C/Nc1ccc(Cc2ccncc2)cc1` showed an IC50 of 30 nM. `NS(=O)(=O)c1ccc(N/C=C2\C(=O)Nc3ncc(-c4ccsc4)cc32)cc1` was tested, and the IC50 was 550 nM. Compound `O=C1Nc2ncc(Br)cc2/C1=C/Nc1ccc2ncccc2c1` has an IC50 of 55 nM. With `CCOC(=O)c1cnc2c(c1)/C(=C/Nc1ccc(S(N)(=O)=O)cc1)C(=O)N2` the IC50 was 55 nM. With `O=C1Nc2ccc3ccncc3c2/C1=C/Nc1ccc(CCO)cc1` the IC50 was 75 nM. `O=C1Nc2nc(Cl)ccc2/C1=C/Nc1ccc2cn[nH]c2c1` showed an IC50 of 550 nM. In the case of `O=C1Nc2ncc(-c3ccco3)cc2/C1=C/Nc1ccc2cn[nH]c2c1`, the IC50 is reported as 5500 nM. `NS(=O)(=O)c1ccc(N/C=C2\C(=O)Nc3cnccc32)cc1` showed an IC50 of 55 nM. With `NS(=O)(=O)c1ccc(N/C=C2\C(=O)Nc3nc(Cl)ccc32)cc1` the IC50 was 550 nM. `CCOC(=O)c1cnc2c(c1)/C(=C/Nc1ccc3cn[nH]c3c1)C(=O)N2` showed an IC50 of 55 nM. For `NC(=O)c1ccc(N/C=C2\C(=O)Nc3ccc4ncsc4c32)cc1`, the IC50 was 75 nM. `CCOC(=O)c1cnc2c(c1)/C(=C/Nc1ccc3ncccc3c1)C(=O)N2` gave an IC50 of 550 nM. For `O=C1Nc2ncc(-c3ccsc3)cc2/C1=C/Nc1ccc2cn[nH]c2c1`, the IC50 was 550 nM.
